Assays:
[1] = test system: human lung cancer strain NCI-H441; assay: cells; conditions: NCI-H441, 96 h, read-out: NCI-H441 IC50 (nM), NCI-H441 cell proliferation, 4 days, CellTiter-Glo;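 note: cell proliferation inhibition after four days measured by CellTiter-Glo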
[2] = target: GDP-bound HRAS wild-type protein (Homo sapiens, UniProt P01112); assay: Binding to HRAS by surface plasmon resonance (SPR), Single Cycle Kinetics; conditions: ratio of KD for GDP-bound HRAS wild-type protein to KD for KRAS, SPR
Sequence of GDP-bound HRAS wild-type protein (P01112 whole entry): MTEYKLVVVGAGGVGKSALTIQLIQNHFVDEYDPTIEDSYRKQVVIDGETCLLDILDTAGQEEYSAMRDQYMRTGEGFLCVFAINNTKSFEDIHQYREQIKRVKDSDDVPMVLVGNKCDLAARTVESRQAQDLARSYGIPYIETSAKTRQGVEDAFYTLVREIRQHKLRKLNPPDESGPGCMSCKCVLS

[3] = target: GDP-bound NRAS wild-type protein (Homo sapiens, UniProt P01111); assay: Binding to NRAS by surface plasmon resonance (SPR), Single Cycle Kinetics; conditions: ratio of KD for GDP-bound NRAS wild-type protein to KD for KRAS, SPR
Sequence of GDP-bound NRAS wild-type protein (P01111 whole entry): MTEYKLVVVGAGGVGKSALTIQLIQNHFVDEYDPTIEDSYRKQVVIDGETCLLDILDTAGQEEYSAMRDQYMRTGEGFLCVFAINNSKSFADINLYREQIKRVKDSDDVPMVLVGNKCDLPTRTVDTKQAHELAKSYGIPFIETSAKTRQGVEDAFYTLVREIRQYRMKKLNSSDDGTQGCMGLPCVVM

[4] = target: GDP-bound KRAS wild-type protein (Homo sapiens, UniProt P01116); assay: Binding to KRAS by surface plasmon resonance (SPR), Single Cycle Kinetics; conditions: SPR, Single Cycle Kinetics, GDP-bound KRAS wild-type protein; read-out: KRAS KD
Sequence of GDP-bound KRAS wild-type protein (P01116 whole entry): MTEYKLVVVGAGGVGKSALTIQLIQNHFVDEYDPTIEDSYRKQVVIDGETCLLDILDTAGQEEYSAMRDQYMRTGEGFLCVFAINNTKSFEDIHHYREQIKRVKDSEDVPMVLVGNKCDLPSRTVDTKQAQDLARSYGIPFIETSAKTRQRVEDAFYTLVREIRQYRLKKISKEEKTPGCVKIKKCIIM

Row | Structure (SMILES) | IC50 [1] [nM] | HRAS/KRAS (KD ratio) [2] | NRAS/KRAS (KD ratio) [3] | Kd [4] [nM]
1 | CCO[C@@H]1C[C@H]2C(=O)NC3(CC(C)(C)C3)C(=O)N(C)[C@@H](C3CCCC3)C(=O)N(C)[C@H](C(=O)N(C)C)CC(=O)N(C)[C@@H](C)C(=O)N[C@@H]([C@@H](C)CC)C(=O)N(C)CC(=O)N(C)[C@H]3C/C=C\CCN(C3=O)[C@@H](Cc3ccc(C(F)(F)F)cc3)C(=O)N(C)CC(=O)N[C@@H](CCc3ccc(C(F)(F)F)c(OC)c3)C(=O)N2C1 [PP1674] | 5.1 | A (a compound having 10 or more and less than 20 is denoted as A) | A (a compound having 10 or more and less than 20 is denoted as A) | 0.036
2 | CCO[C@@H]1C[C@H]2C(=O)NC3(CC(C)(C)C3)C(=O)N(C)[C@@H](C3CCCC3)C(=O)N(C)[C@H](C(=O)N(C)C)CC(=O)N(C)[C@@H](CC(F)(F)F)C(=O)N[C@@H]([C@@H](C)CC)C(=O)N(C)CC(=O)N(C)[C@H]3C/C=C\CCN(C3=O)[C@@H](Cc3ccc(C(F)(F)F)cc3)C(=O)N(C)CC(=O)N[C@@H](CCc3ccc(C(F)(F)F)c(OC)c3)C(=O)N2C1 [PP1675] | 3 | B (a compound having 3 or more and less than 10 is denoted as B) | A (a compound having 10 or more and less than 20 is denoted as A) | 0.071
3 | CCC[C@H]1C(=O)N[C@@H]([C@@H](C)CC)C(=O)N(C)CC(=O)N(C)[C@H]2C/C=C\CCN(C2=O)[C@@H](Cc2ccc(C(F)(F)F)cc2)C(=O)N(C)CC(=O)N[C@@H](CCc2ccc(C(F)(F)F)c(OC)c2)C(=O)N2C[C@H](OCC)C[C@H]2C(=O)NC2(CC(C)(C)C2)C(=O)N(C)[C@@H](C2CCCC2)C(=O)N(C)[C@H](C(=O)N(C)CC)CC(=O)N1C [PP1676] | 5 | A (a compound having 10 or more and less than 20 is denoted as A) | A (a compound having 10 or more and less than 20 is denoted as A) | 0.12
4 | C#CC[C@H]1C(=O)N[C@@H]([C@@H](C)CC)C(=O)N(C)CC(=O)N(C)[C@H]2C/C=C\CCN(C2=O)[C@@H](Cc2ccc(C(F)(F)F)cc2)C(=O)N(C)CC(=O)N[C@@H](CCc2ccc(C(F)(F)F)c(OC)c2)C(=O)N2C[C@H](OCC)C[C@H]2C(=O)NC2(CC(C)(C)C2)C(=O)N(C)[C@@H](C2CCCC2)C(=O)N(C)[C@H](C(=O)N(C)C)CC(=O)N1C [PP1677] | 3.4 | A (a compound having 10 or more and less than 20 is denoted as A) | A (a compound having 10 or more and less than 20 is denoted as A) | 0.042
5 | CCO[C@@H]1C[C@H]2C(=O)NC3(CC(C)(C)C3)C(=O)N(C)[C@@H](C3CCCC3)C(=O)N(C)[C@H](C(=O)N(C)CC)CC(=O)N(C)[C@@H](CC3CC3)C(=O)N[C@@H]([C@@H](C)CC)C(=O)N(C)CC(=O)N(C)[C@H]3C/C=C\CCN(C3=O)[C@@H](Cc3ccc(C(F)(F)F)cc3)C(=O)N(C)CC(=O)N[C@@H](CCc3ccc(C(F)(F)F)c(OC)c3)C(=O)N2C1 [PP1678] | 5.6 | B (a compound having 3 or more and less than 10 is denoted as B) | A (a compound having 10 or more and less than 20 is denoted as A) | 0.17
6 | CCO[C@@H]1C[C@H]2C(=O)NC3(CC(C)(C)C3)C(=O)N(C)[C@@H](C3CCCC3)C(=O)N(C)[C@H](C(=O)N(C)CC)CC(=O)N(C)[C@@H](COC)C(=O)N[C@@H]([C@@H](C)CC)C(=O)N(C)CC(=O)N(C)[C@H]3C/C=C\CCN(C3=O)[C@@H](Cc3ccc(C(F)(F)F)cc3)C(=O)N(C)CC(=O)N[C@@H](CCc3ccc(C(F)(F)F)c(OC)c3)C(=O)N2C1 [PP1679] | 3.1 | A (a compound having 10 or more and less than 20 is denoted as A) | A (a compound having 10 or more and less than 20 is denoted as A) | 0.065
7 | CC[C@H](C)[C@@H]1NC(=O)[C@H](CC(F)(F)F)N(C)C(=O)C[C@@H](C(=O)N(C)C)N(C)C(=O)[C@H](C2CCCC2)N(C)C(=O)C2(CC(C)(C)C2)NC(=O)[C@@H]2C[C@H](C)CN2C(=O)[C@H](CCc2cc(F)c(C(F)(F)F)c(F)c2)NC(=O)CN(C)C(=O)[C@H](Cc2ccc(C(F)(F)F)cc2)N2CC/C=C\C[C@@H](C2=O)N(C)C(=O)CN(C)C1=O [PP1682] | 2.6 | A (a compound having 10 or more and less than 20 is denoted as A) | AA (a compound having 20 or more is denoted as AA) | 0.082
8 | CCC[C@H]1C(=O)N[C@@H]([C@@H](C)CC)C(=O)N(C)CC(=O)N(C)[C@H]2C/C=C\CCN(C2=O)[C@@H](Cc2ccc(C(F)(F)F)cc2)C(=O)N(C)CC(=O)N[C@@H](CCc2cc(F)c(C(F)(F)F)c(F)c2)C(=O)N2C[C@@H](C)C[C@H]2C(=O)NC2(CC(C)(C)C2)C(=O)N(C)[C@@H](C2CCCC2)C(=O)N(C)[C@H](C(=O)N(C)C)CC(=O)N1C [PP1683] | 2.5 | A (a compound having 10 or more and less than 20 is denoted as A) | A (a compound having 10 or more and less than 20 is denoted as A) | 0.097
9 | CC[C@H](C)[C@@H]1NC(=O)[C@H](CC2CCC2)N(C)C(=O)C[C@@H](C(=O)N(C)C)N(C)C(=O)[C@H](C2CCCC2)N(C)C(=O)C2(CC(C)(C)C2)NC(=O)[C@@H]2C[C@H](C)CN2C(=O)[C@H](CCc2cc(F)c(C(F)(F)F)c(F)c2)NC(=O)CN(C)C(=O)[C@H](Cc2ccc(C(F)(F)F)cc2)N2CC/C=C\C[C@@H](C2=O)N(C)C(=O)CN(C)C1=O [PP1684] | 7.7 | A (a compound having 10 or more and less than 20 is denoted as A) | A (a compound having 10 or more and less than 20 is denoted as A) | 0.15
10 | CCCN(C)C(=O)[C@@H]1CC(=O)N(C)[C@@H](CC(F)F)C(=O)N[C@@H]([C@@H](C)CC)C(=O)N(C)CC(=O)N(C)[C@H]2C/C=C\CCN(C2=O)[C@@H](Cc2ccc(C(F)(F)F)cc2)C(=O)N(C)CC(=O)N[C@@H](CCc2cc(F)c(C(F)(F)F)c(F)c2)C(=O)N2C[C@H](F)C[C@H]2C(=O)NC2(CC(C)(C)C2)C(=O)N(C)[C@@H](C2CCCC2)C(=O)N1C [PP1687] | 2.7 | A (a compound having 10 or more and less than 20 is denoted as A) | A (a compound having 10 or more and less than 20 is denoted as A) | 0.075
11 | CC[C@H](C)[C@@H]1NC(=O)[C@H](CC(F)(F)F)N(C)C(=O)C[C@@H](C(=O)N(C)C)N(C)C(=O)[C@H](C2CCCC2)N(C)C(=O)C2(CC(C)(C)C2)NC(=O)[C@@H]2C[C@@H](F)CN2C(=O)[C@H](CCc2cc(F)c(C(F)(F)F)c(F)c2)NC(=O)CN(C)C(=O)[C@H](Cc2ccc(C(F)(F)F)cc2)N2CC/C=C\C[C@@H](C2=O)N(C)C(=O)CN(C)C1=O [PP1688] | 1.5 | A (a compound having 10 or more and less than 20 is denoted as A) | A (a compound having 10 or more and less than 20 is denoted as A) | 0.025
12 | CCC[C@H]1C(=O)N[C@@H]([C@@H](C)CC)C(=O)N(C)CC(=O)N(C)[C@H]2C/C=C\CCN(C2=O)[C@@H](Cc2ccc(C(F)(F)F)cc2)C(=O)N(C)CC(=O)N[C@@H](CCc2cc(F)c(C(F)(F)F)c(F)c2)C(=O)N2C[C@H](F)C[C@H]2C(=O)NC2(CC(C)(C)C2)C(=O)N(C)[C@@H](C2CCCC2)C(=O)N(C)[C@H](C(=O)N(C)C)CC(=O)N1C [PP1689] | 1.4 | B (a compound having 3 or more and less than 10 is denoted as B) | A (a compound having 10 or more and less than 20 is denoted as A) | 0.023
13 | C#CC[C@H]1C(=O)N[C@@H]([C@@H](C)CC)C(=O)N(C)CC(=O)N(C)[C@H]2C/C=C\CCN(C2=O)[C@@H](Cc2ccc(C(F)(F)F)cc2)C(=O)N(C)CC(=O)N[C@@H](CCc2cc(F)c(C(F)(F)F)c(F)c2)C(=O)N2C[C@H](F)C[C@H]2C(=O)NC2(CC(C)(C)C2)C(=O)N(C)[C@@H](C2CCCC2)C(=O)N(C)[C@H](C(=O)N(C)CC)CC(=O)N1C [PP1691] | 3.1 | A (a compound having 10 or more and less than 20 is denoted as A) | A (a compound having 10 or more and less than 20 is denoted as A) | 0.06
14 | C#CC[C@H]1C(=O)N[C@@H]([C@@H](C)CC)C(=O)N(C)CC(=O)N(C)[C@H]2C/C=C\CCN(C2=O)[C@@H](Cc2ccc(C(F)(F)F)cc2)C(=O)N(C)CC(=O)N[C@@H](CCc2cc(F)c(C(F)(F)F)c(F)c2)C(=O)N2C[C@H](F)C[C@H]2C(=O)NC2(CC(C)(C)C2)C(=O)N(C)[C@@H](C2CCCC2)C(=O)N(C)[C@H](C(=O)N(C)CCC)CC(=O)N1C [PP1692] | 4.3 | A (a compound having 10 or more and less than 20 is denoted as A) | AA (a compound having 20 or more is denoted as AA) | 0.11
15 | CC[C@H](C)[C@@H]1NC(=O)[C@H](CC(C)C)N(C)C(=O)C[C@@H](C(=O)N(C)CC)N(C)C(=O)[C@H](C2CCCC2)N(C)C(=O)C2(CC(C)(C)C2)NC(=O)[C@@H]2C[C@@H](F)CN2C(=O)[C@H](CCc2cc(F)c(C(F)(F)F)c(F)c2)NC(=O)CN(C)C(=O)[C@H](Cc2ccc(C(F)(F)F)cc2)N2CC/C=C\C[C@@H](C2=O)N(C)C(=O)CN(C)C1=O [PP1694] | 4.1 | A (a compound having 10 or more and less than 20 is denoted as A) | A (a compound having 10 or more and less than 20 is denoted as A) | 0.051
